Laboratory results published in ChEMBL document CHEMBL4190173 (Medchemcomm, 2016).
Calls of active or inactive are those of the source. No cut-off for these calls is given here.

Legend:
[1] = target: T1, NAD-dependent protein deacetylase sirtuin-1 (Homo sapiens) (UniProt Q96EB6); test: Inhibition of human recombinant SIRT1 at 50 uM using AMC-p53 (379 to 382 residues) as substrate incubated for 45 mins followed by NAD+ addition measured after 30 mins by fluorescence assay relative to control
T1 sequence (whole entry): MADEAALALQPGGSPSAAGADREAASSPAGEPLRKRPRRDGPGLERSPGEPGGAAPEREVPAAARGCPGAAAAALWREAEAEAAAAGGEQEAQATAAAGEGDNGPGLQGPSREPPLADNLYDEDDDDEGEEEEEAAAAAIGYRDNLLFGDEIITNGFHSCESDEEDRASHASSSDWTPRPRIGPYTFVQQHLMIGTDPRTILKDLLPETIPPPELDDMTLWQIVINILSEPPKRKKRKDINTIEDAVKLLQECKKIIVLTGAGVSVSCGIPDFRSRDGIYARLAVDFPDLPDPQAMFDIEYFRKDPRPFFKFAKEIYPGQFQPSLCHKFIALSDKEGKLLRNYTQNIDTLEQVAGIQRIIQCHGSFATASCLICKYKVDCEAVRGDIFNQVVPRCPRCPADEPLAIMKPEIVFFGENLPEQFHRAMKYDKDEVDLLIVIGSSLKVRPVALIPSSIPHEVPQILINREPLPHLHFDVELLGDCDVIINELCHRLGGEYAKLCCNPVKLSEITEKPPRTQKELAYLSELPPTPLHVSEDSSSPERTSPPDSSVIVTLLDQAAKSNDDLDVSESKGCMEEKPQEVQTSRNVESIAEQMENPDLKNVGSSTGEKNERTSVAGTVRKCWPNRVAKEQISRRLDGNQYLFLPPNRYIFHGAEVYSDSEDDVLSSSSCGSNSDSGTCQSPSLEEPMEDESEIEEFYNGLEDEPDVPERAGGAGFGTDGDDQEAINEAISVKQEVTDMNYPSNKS

[2] = target: T2, NAD-dependent protein deacetylase sirtuin-3, mitochondrial (Homo sapiens) (UniProt Q9NTG7); test: Inhibition of human recombinant SIRT3 at 50 uM using AMC-p53 ([…] residues) as substrate incubated for 45 mins followed by NAD+ addition measured after 30 mins by fluorescence assay relative to control
T2 sequence (whole entry): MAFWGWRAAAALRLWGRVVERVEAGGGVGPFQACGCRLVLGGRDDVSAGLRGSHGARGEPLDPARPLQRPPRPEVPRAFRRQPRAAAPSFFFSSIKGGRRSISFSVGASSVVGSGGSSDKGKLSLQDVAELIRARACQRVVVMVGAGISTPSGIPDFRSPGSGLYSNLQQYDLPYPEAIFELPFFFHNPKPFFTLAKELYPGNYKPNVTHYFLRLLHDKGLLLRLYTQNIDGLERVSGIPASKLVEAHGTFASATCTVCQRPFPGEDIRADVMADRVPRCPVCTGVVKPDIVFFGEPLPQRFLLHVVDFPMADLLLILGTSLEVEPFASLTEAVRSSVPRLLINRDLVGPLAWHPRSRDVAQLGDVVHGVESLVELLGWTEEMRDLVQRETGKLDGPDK

[3] = target: T3, NAD-dependent protein deacetylase sirtuin-2 (Homo sapiens) (UniProt Q8IXJ6); test: Inhibition of human recombinant SIRT2 at 50 uM using AMC-p53 ([…] residues) as substrate incubated for 45 mins followed by NAD+ addition measured after 30 mins by fluorescence assay relative to control
T3 sequence (whole entry): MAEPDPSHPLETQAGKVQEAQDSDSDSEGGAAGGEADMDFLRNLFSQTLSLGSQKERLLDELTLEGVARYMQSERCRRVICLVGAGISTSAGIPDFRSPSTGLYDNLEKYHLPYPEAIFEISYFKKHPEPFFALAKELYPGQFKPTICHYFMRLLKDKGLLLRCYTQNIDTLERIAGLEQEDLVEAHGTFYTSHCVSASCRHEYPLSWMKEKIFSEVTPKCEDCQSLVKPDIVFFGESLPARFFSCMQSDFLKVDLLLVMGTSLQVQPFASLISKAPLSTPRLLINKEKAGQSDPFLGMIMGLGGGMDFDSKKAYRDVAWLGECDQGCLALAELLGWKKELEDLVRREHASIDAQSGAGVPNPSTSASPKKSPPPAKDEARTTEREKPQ

[4] = target: T4, NAD-dependent protein deacetylase sirtuin-1 (Homo sapiens, UniProt Q96EB6); test: Inhibition of human recombinant SIRT1 using AMC-p53 (379 to 382 residues) as substrate incubated for 45 mins followed by NAD+ addition measured after 30 mins by fluorescence assay
T4 sequence (Q96EB6 whole entry): T1 sequence (whole entry)

[5] = target: T5, NAD-dependent protein deacetylase sirtuin-3, mitochondrial (Homo sapiens, UniProt Q9NTG7); test: Inhibition of human recombinant SIRT3 using AMC-p53 (317 to 320 residues) as substrate incubated for 45 mins followed by NAD+ addition measured after 30 mins by fluorescence assay
T5 sequence (Q9NTG7 whole entry): T2 sequence (whole entry)

[6] = target: T6, NAD-dependent protein deacetylase sirtuin-2 (Homo sapiens, UniProt Q8IXJ6); test: Inhibition of human recombinant SIRT2 using AMC-p53 (317 to 320 residues) as substrate incubated for 45 mins followed by NAD+ addition measured after 30 mins by fluorescence assay
T6 sequence (Q8IXJ6 whole entry): T3 sequence (whole entry)

[7] = target: T3, NAD-dependent protein deacetylase sirtuin-2 (Homo sapiens); test: Competitive inhibition of human recombinant SIRT2 using varying levels of AMC-p53 (317 to 320 residues) as substrate
[8] = target: T3, NAD-dependent protein deacetylase sirtuin-2 (Homo sapiens); test: Competitive inhibition of human recombinant SIRT2 using varying levels of NAD+

Compound	inhibition [1] [%]	inhibition [2] [%]	inhibition [3] [%]	IC50 [4] [µM]	IC50 [5] [µM]	IC50 [6] [µM]	inhibition [7]	inhibition [8]
CCOC(=O)c1ccc(N2CCN(CCn3c(-c4ccc(-c5ccc(OC(F)(F)F)cc5)cc4)nc4cc(C(=O)OCC)ccc43)CC2)c(N)c1	24.6	20.6	37.2					
CCOC(=O)c1ccc(N2CCN(CCn3c(-c4ccc(-c5ccc6c(c5)OCO6)cc4)nc4cc(C(=O)OCC)ccc43)CC2)c(N)c1				29.8	27	16.1		
CCCCCCCCn1c(-c2ccc(-c3ccc(N(C)C)cc3)cc2)nc2cc(C(=O)OCC)ccc21				> 50	> 50	38.1		
CCOC(=O)c1ccc(N2CCN(CCn3c(-c4ccc(-c5ccc(C)cc5)cc4)nc4cc(C(=O)OCC)ccc43)CC2)c(N)c1	28.4	30.7	43					
CCOC(=O)c1ccc(N2CCN(CCn3c(-c4ccc(-c5cncc(-c6ccc(F)cc6)c5)cc4)nc4cc(C(=O)OCC)ccc43)CC2)c(N)c1	20.6	18.4	20.9					
CCOC(=O)c1ccc(N2CCN(CCn3c(-c4ccc(-c5ccc(N(C)C)cc5)cc4)nc4cc(C(=O)OCC)ccc43)CC2)c(N)c1				10.2		2.92	Active	Active
CCOC(=O)c1ccc(N2CCN(CCn3c(-c4ccc(-c5ccc(O)cc5O)cc4)nc4cc(C(=O)OCC)ccc43)CC2)c(N)c1				20		7.87		
CN(C)CCCCC(=O)Nc1ccc(NC(=S)NC(=O)c2ccc(C(C)(C)C)cc2)cc1					82.6			
CCCCCCCCn1c(-c2ccc(-c3ccc(C)cc3)cc2)nc2cc(C(=O)OCC)ccc21	15.3	19.4	30.3					
CCCCCCCCn1c(-c2ccc(-c3ccc(OC(F)(F)F)cc3)cc2)nc2cc(C(=O)OCC)ccc21	25	16.9	35.6					
CCCCCCCCn1c(-c2ccc(-c3ccc(O)cc3O)cc2)nc2cc(C(=O)OCC)ccc21	29	31.5	45.9					
CCOC(=O)c1ccc(N2CCN(CCn3c(-c4ccc(-c5ccc(O)c(OC)c5)cc4)nc4cc(C(=O)OCC)ccc43)CC2)c(N)c1				35.1		8.61		
CCCCCCCCn1c(-c2ccc(-c3cccc(-c4ccc(F)cn4)c3)cc2)nc2cc(C(=O)OCC)ccc21	22	24.4	14					
CCCCCCCCn1c(-c2ccc(-c3ccc(O)c(OC)c3)cc2)nc2cc(C(=O)OCC)ccc21				> 50	> 50	46.9		
CCCCCCCCn1c(-c2ccc(-c3ccc(N4CCCCC4)cc3)cc2)nc2cc(C(=O)OCC)ccc21				> 50	> 50	36.8		
CCOC(=O)c1ccc(N2CCN(CCn3c(-c4ccc(-c5ccc(N6CCCCC6)cc5)cc4)nc4cc(C(=O)OCC)ccc43)CC2)c(N)c1				37		13.5		
CCOC(=O)c1ccc(N2CCN(CCn3c(-c4ccc(-c5ccccc5)cc4)nc4cc(C(=O)OCC)ccc43)CC2)c(N)c1	31.1	25.1	26.8					
CCCCCCCCn1c(-c2ccc(-c3ccccc3)cc2)nc2cc(C(=O)OCC)ccc21	23.9	20.4	30					
CCCCCCCCn1c(-c2ccc(-c3ccc(Cl)cc3)cc2)nc2cc(C(=O)OCC)ccc21	24.3	24.9	38.3					
CCOC(=O)c1ccc(N2CCN(CCn3c(-c4ccc(-c5ccc(Cl)cc5)cc4)nc4cc(C(=O)OCC)ccc43)CC2)c(N)c1	28.2	38	43.3					
CCCCCCCCn1c(-c2ccc(-c3ccc4c(c3)OCO4)cc2)nc2cc(C(=O)OCC)ccc21				> 50	> 50	41.4		
